Data published in patent publication US20250041379A1, “METHODS AND COMPOSITIONS FOR THE TREATMENT OF CANCER” (Vigeo Therapeutics, Inc., priority 2021, published 2025).
No end group written: not given here.

Tests used:
pancreatic cancer [1] = experiment: Example 3: treatment of pancreatic cancer with dually elevated CD36 and CD47; format: in vivo; details: expected
Method: Subjects having pancreatic cancer are identified using standard clinical protocols. Samples are obtained and levels of CD36 and CD47 measured using methods known in the art. Subjects presenting with dually elevated CD36 and CD47 levels as compared to suitable controls are selected for dosing with VT1021. Subjects advancing to the treatment phase are administered VT1021. Frequency and dosage are determined in accordance with the stage and severity of disease accordingly to methods standard in the art. Tumor burden and other disease indicators are measured and data compiled using methods known in the art.

[2] = tested on: tumor microenvironment (TME) in rGBM; experiment: IHC and multiplex ion beam imaging of immune cells in rGBM tumor biopsy pair; format: in vivo, human; details: rGBM subject with CR
From the text: FIG. 11C is a bar graph of the change in the percentage of M1 and M2 macrophages in patient tumor tissue as determined by metal ion immunostaining.
FIG. 11E is a bar graph depicting the fold-change in cytotoxic T lymphocytes (CTLs) in patients prior to the onset of treatment with VT1021 (pre-treatment) and during treatment with VT1021 (On-Study) as determined by metal ion immunostaining.
FIG. 11F is a bar graph depicting the fold-change in total and monocytic myeloid derived suppressor cells (MDSCs) in patients prior to the onset of treatment with VT1021 (pre-treatment) and during treatment with VT1021 (On-Study) as determined by metal ion immunostaining.
The blood samples were collected from GBM subjects in the expansion phase, who were treated by VT1021 at 11.8 mg/kg, twice weekly, by IV infusion. VT1021 levels were measured and analyzed among male and female subjects (FIG. 7). Days on study have been collected from the same group of subjects (FIG. 8). […] CD36 and CD47 levels have been measured by immunohistochemistry assays in the pre-treatment tumor biopsy samples of the GBM subjects (FIG. 9, FIG. 10). Levels of Tsp-1 were measured by ELISA for circulating Tsp-1 levels in the collected blood samples, and by immunohistochemistry for the level of Tsp-1 accumulated in the tumor biopsy samples (FIG. 10). The infiltration of immune and inflammatory cells, specifically, MDSCs, T cells and macrophages, were determined by immunohistochemical analysis of the levels of cell surface markers in the tumor biopsy samples of subjects (FIG. 11).
FIG. 11A, FIG. 11B, FIG. 11C, FIG. 11D, FIG. 11E, and FIG. 11F are charts showing modulation of the immune system by VT1021 in circulation and in the TME. […] Proliferating CTLs increased ≥1.5 fold regardless of clinical response, proliferating helper T cells increased ≥1.5 fold in CR/PR and PD subjects while monocytic MDSCs (mMDSCs) and activated MDSCs decreased≤0.5 fold in all evaluable subjects. […] Percent of M1 increased 1.9-fold while M2 decreased 0.6-fold after treatment. […] CTLs increased >4 fold while total and mMDSCs […] >15 fold in the on-study biopsy compared to pre-treatment.

recurrent GBM (rGBM) = experiment: Phase I/II clinical study: clinical response and duration of treatment in recurrent GBM; format: in vivo, human
Method: VT1021 was evaluated in a recently completed phase I/II open-label, multicenter, dose escalation (Part 1) and expansion (Part 2) clinical study in advanced, refractory, solid tumors including recurrent GBM (rGBM) (NCT03364400). Thirty-two subjects with rGBM were dosed in Part 2, 22 of which were considered evaluable as having completed ≥1 cycle of VT1021 treatment and tumor imaging during cycle 2. […] The blood samples were collected from GBM subjects in the expansion phase, who were treated by VT1021 at 11.8 mg/kg, twice weekly, by IV infusion. VT1021 levels were measured and analyzed among male and female subjects (FIG. 7). Days on study have been collected from the same group of subjects (FIG. 8). […] CD36 and CD47 levels have been measured by immunohistochemistry assays in the pre-treatment tumor biopsy samples of the GBM subjects (FIG. 9, FIG. 10). Levels of Tsp-1 were measured by ELISA for circulating Tsp-1 levels in the collected blood samples, and by immunohistochemistry for the level of Tsp-1 accumulated in the tumor biopsy samples (FIG. 10). The infiltration of immune and inflammatory cells, specifically, MDSCs, T cells and macrophages, were determined by immunohistochemical analysis of the levels of cell surface markers in the tumor biopsy samples of subjects (FIG. 11). […] Among 22 evaluable rGBM subjects, 3 had complete response (CR), 1 had partial response (PR), and 7 had stable disease (SD) with an average study duration of over 203 days. The overall disease control rate (DCR) was 50%. […] Of the 11 CR/PR/SDs, 6 were dual high (55%). […] Complete response scan images and lesion shrinkage for 1 of 3 subjects who achieved CR.

pancreatic cancer [3] = experiment: Phase I/II clinical study: tumor burden, stable disease and days on study in pancreatic cancer (Part 2); format: in vivo, human
Method: VT1021 was evaluated in a recently completed phase I/II open-label, multicenter, dose escalation (Part 1) and expansion (Part 2) clinical study in advanced, refractory, solid tumors including pancreatic cancer (NCT03364400). Seven subjects with pancreatic cancer were dosed in Part 1 and 32 were dosed in Part 2, 17 of which were considered evaluable as having completed ≥1 cycle of VT1021 treatment and tumor imaging during cycle 2. […] In the “expansion stage” of the VT1021-01 Study, subjects diagnosed with recurrent GBM, pancreatic cancer, ovarian cancer and other solid tumors were enrolled. They were treated with VT1021 at 11.8 mg/kg, twice weekly by IV infusion. The blood samples were collected from the clinical study at pre-treatment, 0, 2, 4, 6 hours post treatment to measure the levels of VT1021 (FIG. 2). The tumor biopsy samples prior to treatment and during treatment were collected from the clinical study to measure expression levels of biomarkers including CD36 and CD47, as well as cell surface markers for immune cell populations in the TME by immunohistochemistry assays (FIG. 3, FIG. 4, FIG. 5). The correlation between days on study and tumor shrinkage versus expression profile of CD36 and CD47 was analyzed (FIG. 4). The general expression profile of CD36 and CD47 has been assessed by IHC on Tumor Tissue Microarrays (TMAs), which contain biopsy samples collected from pancreatic cancer patients. TMAs were purchased from commercial sources, not related to the VT1021-01 clinical study. […] A waterfall plot illustrates changes in tumor burden for 14 subjects in Part 2 with pancreatic cancer with measurable disease.

[4] = on-study biopsy vs pre-treatment, multiplex ion beam imaging, increased
[5] = among 22 evaluable rGBM subjects
[6] = among the 9 CD36/CD47 dual-high rGBM subjects
[7] = the 9 CD36/CD47 dual-high rGBM subjects

With “cyclic DWLPK (also: cyclic, mode of cyclisation not given here) [VT1021, 5-amino acid cyclic peptide from prosaposin; Tsp-1-inducing agent]” the “tumor burden compared to control subjects” value (pancreatic cancer [1]) was “reduction in tumor burden”, the “M2 macrophages, fold change” value ([2]; biopsy pair pre-treatment vs on-study, decreased) was 0.6 fold and the “Percent of M1 macrophages, fold change” value ([2]; biopsy pair pre-treatment vs on-study, increased) was 1.9 fold. The “CTLs, fold change” value [2, 4] was > 4 fold, the “mMDSCs, fold change” value [2, 4] was > 15 fold and the “total MDSCs, fold change” value [2, 4] was > 15 fold. For the same substance, the “treatment until lesion no longer measurable” value (recurrent GBM (rGBM); 1 CR rGBM subject, MRI lesion measurement) was 9 cycles, the time on study (recurrent GBM (rGBM); 1 CR rGBM subject, still on-going) was 476 days and the “overall disease control rate (DCR)” value (recurrent GBM (rGBM); 22 evaluable rGBM subjects) was 50%. For the same substance, the “subjects with complete response (CR)” value (recurrent GBM (rGBM); [5]) was 3, the “subjects with partial response (PR)” value (recurrent GBM (rGBM); [5]) was 1 and the “subjects achieving CR” value (recurrent GBM (rGBM); [6]) was 3. For the same substance, the “subjects achieving SD” value (recurrent GBM (rGBM); [6]) was 3 subjects, the average study duration (recurrent GBM (rGBM); rGBM subjects with CR, PR or SD) was “over 203 days” and the DCR (recurrent GBM (rGBM); [7]) was 67%. The overall response rate (recurrent GBM (rGBM); [7]) was 33.3%, the “subjects with stable disease” value (pancreatic cancer [3]; Part 2 pancreatic cancer, all dually high CD36 and CD47) was 3 subjects and the “subjects with reduction of tumor burden” value (pancreatic cancer [3]; of 14 Part 2 pancreatic cancer subjects with measurable disease, all dually high CD36 and CD47) was 5 subjects. For the same substance, the “average time remained on the study” value (pancreatic cancer [3]; the 5 pancreatic cancer subjects with reduction of tumor burden (dually high)) was 105 days.
